Laboratory results: US7781421B2, “Neuroactive 13, 24-cyclo-18, 21-dinorcholanes and structurally related pentacyclic steriods” (Washington University, priority 2003, dated 2010)
Like-named read-outs stand apart in the source and are kept apart here.

Legend:
[1] = target: GABAA receptor ([35S]-TBPS binding site, rat brain cortical membranes); test: Displacement of [35S]-TBPS binding, rat brain cortical membranes; details: 5 μM GABA, 2 nM [35S]-TBPS; ± standard error of the means
Outline: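 Rat cortical P2 membranes (0.5 mg/mL protein) incubated 2 h at room temperature with 2 nM [35S]-TBPS, 5 μM GABA and steroid (1 nM–10 μM) in 200 mM NaCl/50 mM potassium phosphate, pH 7.4. Filter-bound radioactivity counted; IC50 from Hill equation fit, triplicate points.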

[2] = tested on: Xenopus laevis tadpoles; test: Tadpole loss of righting (LRR) and swimming (LSR) reflexes; type: in vivo; details: 3 h equilibration at room temperature; for EC50: read-out: LSR EC50 (loss of swimming response)
Outline: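 Groups of 10 early prelimb-bud Xenopus laevis tadpoles were held for 3 h at room temperature in oxygenated Ringer's containing compound (DMSO ≤0.1%). Loss of righting was scored as failure to right within 5 sec after flipping, and loss of swimming as failure to swim when touched. EC50 came from a Hill equation fit.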

[3] = target: T1, rat α1β2γ2 GABAA Receptor (Rattus norvegicus, UniProt P18508+P62813+P63138, INS375LLRMFSFK); test: Xenopus oocyte two-electrode voltage-clamp electrophysiology; type: cell-based; details: for Oocyte electrophysiology, ratio of currents in presence/absence of compound, 0.1 μM: 0.1 μM compound co-applied with 2 μM GABA; for Oocyte electrophysiology, ratio of currents in presence/absence of compound, 0.1 μM / Oocyte electrophysiology, ratio of currents in presence/absence of compound, 1 μM / Oocyte electrophysiology, ratio of currents in presence/absence of compound, 10 μM: −70 mV; for Oocyte electrophysiology, ratio of currents in presence/absence of compound, 1 μM: 1 μM compound co-applied with 2 μM GABA; for Oocyte electrophysiology, ratio of currents in presence/absence of compound, 10 μM: 10 μM compound co-applied with 2 μM GABA; for Gating (10 μM), ratio of compound only current/2 μM GABA current: direct current gated by 10 μM compound in the absence of GABA
T1 construct: from linearized pBluescript vectors containing receptor coding regions; expressed in transfected cells; host or cells: Xenopus laevis oocytes injected with in vitro transcribed capped mRNA
T1 sequence (P62813 28-455, stated change not applied): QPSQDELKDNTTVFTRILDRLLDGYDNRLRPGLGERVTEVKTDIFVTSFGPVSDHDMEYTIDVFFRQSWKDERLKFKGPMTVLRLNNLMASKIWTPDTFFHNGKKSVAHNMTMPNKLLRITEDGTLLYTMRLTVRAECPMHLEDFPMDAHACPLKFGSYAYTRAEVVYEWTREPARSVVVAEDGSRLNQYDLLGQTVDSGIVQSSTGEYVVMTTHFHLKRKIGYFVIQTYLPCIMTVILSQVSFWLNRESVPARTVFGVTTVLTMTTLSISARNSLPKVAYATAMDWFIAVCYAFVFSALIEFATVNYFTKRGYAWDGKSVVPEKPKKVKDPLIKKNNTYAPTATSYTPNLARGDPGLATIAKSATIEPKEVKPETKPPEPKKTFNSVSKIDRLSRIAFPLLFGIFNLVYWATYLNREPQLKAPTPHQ
T1 sequence (P63138 26-474, stated change not applied): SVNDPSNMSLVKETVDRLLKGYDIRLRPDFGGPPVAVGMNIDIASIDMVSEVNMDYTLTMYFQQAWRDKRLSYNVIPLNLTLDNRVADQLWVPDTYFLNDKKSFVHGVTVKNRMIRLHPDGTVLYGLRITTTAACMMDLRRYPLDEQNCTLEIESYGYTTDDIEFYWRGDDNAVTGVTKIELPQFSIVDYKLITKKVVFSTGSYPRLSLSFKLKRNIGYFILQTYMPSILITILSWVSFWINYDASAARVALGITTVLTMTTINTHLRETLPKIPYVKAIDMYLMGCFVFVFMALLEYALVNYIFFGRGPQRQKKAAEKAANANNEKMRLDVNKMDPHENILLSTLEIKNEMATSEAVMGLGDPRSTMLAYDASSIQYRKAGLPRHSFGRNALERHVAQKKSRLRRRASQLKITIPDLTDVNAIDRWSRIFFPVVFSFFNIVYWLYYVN
T1 sequence (P18508 with tags, fused parts or gaps INS375LLRMFSFK): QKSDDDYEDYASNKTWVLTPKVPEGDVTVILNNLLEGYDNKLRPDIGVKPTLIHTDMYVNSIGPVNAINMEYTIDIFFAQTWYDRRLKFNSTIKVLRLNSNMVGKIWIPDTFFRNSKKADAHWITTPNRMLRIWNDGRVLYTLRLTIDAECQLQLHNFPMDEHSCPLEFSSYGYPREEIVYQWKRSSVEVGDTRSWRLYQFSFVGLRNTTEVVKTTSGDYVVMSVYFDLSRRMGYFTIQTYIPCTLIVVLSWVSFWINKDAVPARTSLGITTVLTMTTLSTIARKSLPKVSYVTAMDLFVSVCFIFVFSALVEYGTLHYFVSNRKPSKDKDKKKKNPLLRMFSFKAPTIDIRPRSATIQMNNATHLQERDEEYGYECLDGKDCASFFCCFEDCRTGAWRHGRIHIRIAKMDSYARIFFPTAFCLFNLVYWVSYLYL
Outline: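 Oocytes injected with rat α1, β2, γ2L mRNA, voltage-clamped at −70 mV 2-5 days later in ND96. Compounds co-applied with 2 μM GABA for 20 s; peak current ratio with/without compound, n≥4 oocytes. (G): current from 10 μM compound alone, as ratio to 2 μM GABA current.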

Row | SMILES | melting point [°C] | IC50 [1] [µM] | LRR ED50 (loss of righting response) [2] | LSR EC50 (loss of swimming response) [2] | Oocyte electrophysiology, ratio of currents in presence/absence of compound, 0.1 μM [3] | Oocyte electrophysiology, ratio of currents in presence/absence of compound, 1 μM [3] | Oocyte electrophysiology, ratio of currents in presence/absence of compound, 10 μM [3] | Gating (10 μM), ratio of compound only current/2 μM GABA current [3] | EC50 [2] [µM] | Reversibility of steroid effect on GABA current (FIG. 1A) ([3]; 500 nM compound, 2 μM GABA, GABA recovery panel) | EC50 ([2]; Xenopus laevis, 3 h) [µM]
1 | CC12CCC(O)CC1CCC1C2CCC23CC=CC(=O)C2CCC13 (stereo not drawn) [Compound 11a, (3α,5α)-3-Hydroxy-13,24-cyclo-18,21-dinorchol-22-en-20-one] | 230 to 232 | 0.373 ± 0.02 | 3.38 ± 0.67 µM | None @ 10 | 1.49 ± 0.20 | 5.87 ± 1.52 | 9.07 ± 1.86 | 0.72 ± 0.03 | – | – | –
2 | CC12CCC(O)CC1CCC1C2CCC23CCC=CC2CCC13 (stereo not drawn) [Compound 13a, (3α,5α)-13,24-Cyclo-18,21-dinorchol-20(22)-en-3-ol] | 169 to 170 | 0.569 ± 0.028 | >10 µM | None @ 10 | 1.53 ± 0.45 | 2.12 ± 0.40 | 2.68 ± 0.42 | −0.32 ± 0.15 | – | – | –
3 | CC12CCC(O)CC1CCC1C2CCC23C(=O)C=CCC2CCC13 (stereo not drawn) [Compound 35a, (3α,5α)-3-Hydroxy-13,24-cyclo-18,21-dinorchol-22-en-24-one] | 242 to 243 | 0.197 ± 0.023 | 1.02 ± 0.0 µM | – | 1.98 ± 0.25 | 8.33 ± 0.75 | 9.45 ± 4.19 | 0.07 ± 0.10 | 2.66 | readily reversible | –
4 | C[C@]12CC[C@@H](O)C[C@@H]1CCC1C3CC[C@@H]4C[C@H](C#N)CC[C@]34CCC12 (stereo partly drawn) [Compound 45, (3α,5α,22R)-3-Hydroxy-13,24-cyclo-18,21-dinorcholane-22-carbonitrile] | 244 to 246 | 44.3 ± 21.3 | >10 µM | None @ 10 | 0.90 ± 0.02 | 0.82 ± 0.02 | 0.87 ± 0.01 | −0.01 ± 0 | – | – | –
5 | CC12CCC(O)CC1CCC1C2CCC23CC4OC4C(=O)C2CCC13 [Compound 19a, (3α,5α,22S,23S)-22,23-Epoxy-3-hydroxy-13,24-cyclo-18,21-dinorcholan-20-one] | 238 to 240 | 0.37 ± 0.042 | 1.75 ± 0.46 µM | – | 1.47 ± 0.17 | 1.92 ± 0.23 | 8.90 ± 2.10 | 0.23 ± 0.24 | – | – | 10
6 | C[C@]12CC[C@@H](O)C[C@@H]1CCC1C3CC[C@@H]4C=CC=C[C@]34CCC12 (stereo partly drawn) [Compound 60, (3α,5α)-13,24-Cyclo-18,21-dinorchol-20(22),23-dien-3-ol] | 136 to 138 | 0.467 ± 0.026 | 2.70 ± 0.72 µM | – | – | – | 1.1 ± 0.1 | – | – | – | > 10
7 | C[C@]12CC[C@@H](O)C[C@@H]1CCC1C3CC[C@@H]4CC(=O)CC[C@]34CCC12 (stereo partly drawn) [Compound 3a, (3α,5α)-3-Hydroxy-13,24-cyclo-18,21-dinorcholan-22-one] | 195 to 197 | 1.44 | 2.37 ± 0.47 µM | None @ 10 | 1.30 ± 0.15 | 1.61 ± 0.22 | 2.93 ± 0.68 | 0.06 ± 0.06 | – | – | –
8 | CC12CCC(O)CC1CCC1C2CCC23CCC(=O)C2CCC13 (stereo not drawn) [Compound 89, (3α,5α)-3-Hydroxy-18,21-cyclopregnan-20-one] | 176 to 178.5 | 0.204 ± 0.036 | 2.63 ± 0.07 µM | – | 0.81 ± 0.02 | 1.02 ± 0.07 | 4.54 ± 0.64 | 0.01 ± 0.00 | – | – | 5.48 ± 0.15
9 | CC12CCC(O)CC1CCC1C2CCC23CCC(=O)CC2CCC13 (stereo not drawn) [Compound 3b, (3α,5β)-3-Hydroxy-13,24-cyclo-18,21-dinorcholan-22-one] | 175 to 177 | 3.23 | 2.47 ± 0.53 µM | – | 0.97 ± 0.01 | 1.11 ± 0.14 | 2.65 ± 0.33 | −0.10 ± 0.06 | – | – | 9.43 ± 0.06
10 | C[C@]12CC[C@@H](O)C[C@@H]1CCC1C3CC[C@@H]4C[C@@H](C#N)CC[C@]34CCC12 (stereo partly drawn) [Compound 44, (3α,5α,22S)-3-Hydroxy-13,24-cyclo-18,21-dinorcholane-22-carbonitrile] | 199 to 200 | 0.585 ± 0.03 | 0.30 ± 0.03 µM | – | 1.19 ± 0.02 | 1.14 ± 0.13 | 4.01 ± 0.42 | 0.03 ± 0.01 | – | – | 6.28 ± 1.08
11 | CC12CCC(O)CC1CCC1C2CCC23CC(=O)C=CC2CCC13 (stereo not drawn) [Compound 21c, (3α,5α)-3-Hydroxy-13,24-cyclo-18,21-dinorchol-20(22)-en-23-one] | 209 to 210 | 0.243 ± 0.011 | 1.28 ± 0.38 µM | – | 1.59 ± 0.14 | 5.53 ± 0.66 | 16.58 ± 2.45 | 0.35 ± 0.12 | 10 | – | –
12 | CC12CCC(O)CC1CCC1C2CCC23CC4OC4C(=O)C2CCC13 [Compound 19b, (3α,5α,22R,23R)-22,23-Epoxy-3-hydroxy-13,24-cyclo-18,21-dinorcholan-20-one] | 194 to 195 | 0.313 ± 0.018 | 0.96 ± 0.29 µM | – | 1.13 ± 0.02 | 2.11 ± 0.26 | 5.47 ± 0.62 | 0.21 ± 0.02 | 10 | – | –
13 | CC12CCC(O)CC1CCC1C2CCC23CCC=CC2CCC13 (stereo not drawn) [Compound 13b, (3α,5β)-13,24-Cyclo-18,21-dinorchol-20(22)-en-3-ol] | 168 to 169 | 0.484 ± 0.103 | 1.28 ± 1.80 µM | – | 1.44 ± 0.17 | 2.09 ± 0.35 | 3.48 ± 1.01 | −0.05 ± 0.09 | – | – | > 10
14 | CC(=O)C1CCCC23CCC4C(CCC5CC(O)CCC54C)C2CCC13 [Compound 80, (3α,5α,20R)-1-[3-Hydroxy-13,24-cyclo-18,21-dinorcholan-20-yl]ethanone] | 228 to 229 | 2.06 | None @ 10 | None @ 10 | 0.85 ± 0.02 | 0.77 ± 0.03 | 0.93 ± 0.07 | 0.01 ± 0.01 | – | – | –
15 | CC12CCC(O)CC1CCC1C2CCC23C=CC(=O)CC2CCC13 (stereo not drawn) [Compound 30a, (3α,5α)-3-Hydroxy-13,24-Cyclo-18,21-dinorchol-23-en-22-one] | 168 to 170 | 1.26 ± 0.1 | 0.73 ± 0.16 µM | – | 1.12 ± 0.08 | 1.54 ± 0.30 | 5.07 ± 0.98 | −0.04 ± 0.05 | – | – | 5.48 ± 0.09
